Laboratory results as given in patent US7910751B2, “Heterocyclidene acetamide derivative” (Mochida Pharmaceutical Co., Ltd., priority 2005, dated 2011).

Each compound was assayed against T1, human TRPV1 (Homo sapiens, UniProt Q8NER1) (assay: Measurement of capsaicin-induced Ca influx in human TRPV1 transformed CHO cell line using FDSS-6000). Conditions: concentration at which the capsaicin concentration-reaction curve is shifted two times to the right, human TRPV1 transformed CHO cells.
T1 construct: expressed in transfected cells; host or cells: CHO-K1
Format: cell-based

T1 sequence (Q8NER1 whole entry): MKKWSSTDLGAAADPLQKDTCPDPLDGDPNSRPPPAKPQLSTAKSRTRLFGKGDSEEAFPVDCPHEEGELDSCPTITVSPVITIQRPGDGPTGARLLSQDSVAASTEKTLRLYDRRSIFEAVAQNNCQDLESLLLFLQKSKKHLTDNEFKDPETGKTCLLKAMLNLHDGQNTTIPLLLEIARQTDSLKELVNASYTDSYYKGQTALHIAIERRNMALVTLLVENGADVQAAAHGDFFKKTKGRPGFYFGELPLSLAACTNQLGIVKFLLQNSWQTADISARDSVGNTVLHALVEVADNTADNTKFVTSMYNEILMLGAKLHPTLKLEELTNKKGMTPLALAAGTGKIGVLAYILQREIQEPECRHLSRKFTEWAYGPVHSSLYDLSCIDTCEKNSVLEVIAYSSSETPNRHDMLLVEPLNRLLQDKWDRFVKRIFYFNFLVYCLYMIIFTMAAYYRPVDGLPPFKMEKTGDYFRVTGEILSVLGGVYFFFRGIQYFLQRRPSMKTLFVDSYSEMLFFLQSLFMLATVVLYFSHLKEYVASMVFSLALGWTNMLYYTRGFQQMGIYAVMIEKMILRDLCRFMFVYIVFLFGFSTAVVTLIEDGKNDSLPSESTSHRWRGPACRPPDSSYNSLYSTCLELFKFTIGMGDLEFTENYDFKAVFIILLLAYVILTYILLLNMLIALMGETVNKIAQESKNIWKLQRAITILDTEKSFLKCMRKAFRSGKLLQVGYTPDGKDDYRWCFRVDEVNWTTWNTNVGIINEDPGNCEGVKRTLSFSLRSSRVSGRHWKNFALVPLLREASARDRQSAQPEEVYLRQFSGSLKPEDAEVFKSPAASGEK

Which “A2 VALUE” does the source give for `CCCCC(=O)N1CC/C(=C\C(=O)Nc2cccc3ccc(O)cc23)c2ccc(C(F)(F)F)cc21` [Example 74, (E)-2-(1-pentanoyl-7-trifluoromethyl-2,3-dihydroquinolin-4(1H)-ylidene)-N-(7-hydroxynaphthalen-1-yl)acetamide] here?
Its value is “A (compounds of the present invention having an A2 value of less than 100 nM are represented by A)”.

How did the “A2 VALUE” turn out when `CN1C(=O)CCc2ccc(NC(=O)/C=C3\CCCOc4cc(C(F)(F)F)ccc43)cc21` [Example 178, (E)-2-(8-trifluoromethyl-3,4-dihydrobenzo[b]oxepin-5(2H)-ylidene)-N-(1-methyl-2-oxo-1,2,3,4-tetrahydroquinolin-7-yl)acetamide] was run?
Its value is “A (compounds of the present invention having an A2 value of less than 100 nM are represented by A)”.

How did the “A2 VALUE” turn out when `O=C(/C=C1\CCOc2cc(Cl)ccc21)Nc1cccc2c1CC(O)CC2` (stereo not drawn) [Example 208, (E)-2-(7-chloro-chroman-4-ylidene)-N-(7-hydroxy-5,6,7,8-tetrahydronaphthalen-1-yl)acetamide] was run?
The value was “A (compounds of the present invention having an A2 value of less than 100 nM are represented by A)”.

`O=C(/C=C1\CCCOc2cc(C(F)(F)F)ccc21)Nc1cccc2c1CC(O)CC2` (stereo not drawn) [Example 63, (E)-2-(8-trifluoromethyl-3,4-dihydrobenzo[b]oxepin-5-(2H)-ylidene)-N-(7-hydroxy-5,6,7,8-tetrahydronaphthalen-1-yl)acetamide] was tested. Which “A2 VALUE” did it give?
Its value is “A (compounds of the present invention having an A2 value of less than 100 nM are represented by A)”.

`O=C(/C=C1\CCCOc2cc(C(F)(F)F)ccc21)Nc1cccc2c1CC(O)CC2` (stereo not drawn) [Example 64, (E)-2-(8-trifluoromethyl-3,4-dihydrobenzo[b]oxepin-5-(2H)-ylidene)-N-(7-hydroxy-5,6,7,8-tetrahydronaphthalen-1-yl)acetamide] was tested. Which “A2 VALUE” did it give?
The value was “A (compounds of the present invention having an A2 value of less than 100 nM are represented by A)”.

`O=C(/C=C1\CCCOc2cc(C(F)(F)F)ccc21)Nc1ccc2c(c1)OCCO2` [Example 9, (E)-2-(8-trifluoromethyl-3,4-dihydrobenzo[b]oxepin-5(2H)-ylidene)-N-(2,3-dihydrobenzo[b][1,4]dioxin-6-yl)acetamide] was tested. Which “A2 VALUE” did it give?
The value was “A (compounds of the present invention having an A2 value of less than 100 nM are represented by A)”.

`CC1(C)C/C(=C\C(=O)Nc2cccc3c2CC(O)CN3)c2ccc(C(F)(F)F)cc2O1` (stereo not drawn) [Example 244, (E)-2-(7-trifluoromethyl-2,2-dimethylchroman-4-ylidene)-N-(3-hydroxy-1,2,3,4-tetrahydroquinolin-5-yl)acetamide] was tested. Which “A2 VALUE” did it give?
The value was “A (compounds of the present invention having an A2 value of less than 100 nM are represented by A)”.

`O=C(/C=C1/CCCOc2cc(C(F)(F)F)ccc21)Nc1ccc2cccnc2c1` [Example 247, (Z)-2-(8-trifluoromethyl-3,4-dihydrobenzo[b]oxepin-5(2H)-ylidene)-N-(quinolin-7-yl)acetamide] was tested. Which “A2 VALUE” did it give?
The value was “A (compounds of the present invention having an A2 value of less than 100 nM are represented by A)”.

With `O=C(/C=C1\CCCOc2cc(C(F)(F)F)ccc21)Nc1cccc2ccc(O)cc12` [Example 18, (E)-2-(8-trifluoromethyl-3,4-dihydrobenzo[b]oxepin-5(2H)-ylidene)-N-(7-hydroxynaphthalen-1-yl)acetamide] as the compound, how does the “A2 VALUE” read?
The value was “A (compounds of the present invention having an A2 value of less than 100 nM are represented by A)”.

For `O=C(/C=C1\CCCNc2cc(C(F)(F)F)ccc21)Nc1ccc2cccnc2c1` [Example 191, (E)-2-(8-trifluoromethyl-1,2,3,4-tetrahydro-5H-benzo[b]azepin-5-ylidene)-N-(quinolin-7-yl)acetamide], which “A2 VALUE” is on record?
The value was “A (compounds of the present invention having an A2 value of less than 100 nM are represented by A)”.

`CCC(F)(F)C(=O)N1CC/C(=C\C(=O)Nc2cccc3c2CC(O)C(=O)N3)c2ccc(C(F)(F)F)cc21` (stereo not drawn) [Example 185, (E)-2-(1-(2,2-difluorobutanoyl)-7-trifluoromethyl-2,3-dihydroquinolin-4(1H)-ylidene)-N-(3-hydroxy-2-oxo-1,2,3,4-tetrahydroquinolin-5-yl)acetamide] was tested. Which “A2 VALUE” did it give?
The value was “A (compounds of the present invention having an A2 value of less than 100 nM are represented by A)”.

With `CCC(C)CC(=O)N1CC/C(=C\C(=O)Nc2ccc3cccnc3c2)c2ccc(C(F)(F)F)cc21` (stereo not drawn) [Example 79, (E)-2-(1-(3-methylpentanoyl)-7-trifluoromethyl-2,3-dihydroquinolin-4(1H)-ylidene)-N-(quinolin-7-yl)acetamide] as the compound, how does the “A2 VALUE” read?
Its value is “A (compounds of the present invention having an A2 value of less than 100 nM are represented by A)”.

How did the “A2 VALUE” turn out when `O=C(/C=C1\CCCOc2cc(C(F)(F)F)ccc21)Nc1ccc2c(c1)C(=O)CCC2` [Example 23, (E)-2-(8-trifluoromethyl-3,4-dihydrobenzo[b]oxepin-5(2H)-ylidene)-N-(1,2,3,4-tetrahydro-1-oxonaphthalen-7-yl)acetamide] was run?
Its value is “A (compounds of the present invention having an A2 value of less than 100 nM are represented by A)”.

`O=C(/C=C1\CCN(C(=O)CCCC(F)(F)F)c2cc(C(F)(F)F)ccc21)Nc1cccc2c1CC(O)CC2` (stereo not drawn) [Example 93, (E)-2-(1-(5,5,5-trifluoropentanoyl)-7-trifluoromethyl-2,3-dihydroquinolin-4(1H)-ylidene)-N-(7-hydroxy-5,6,7,8-tetrahydronaphthalen-1-yl)acetamide] was tested. Which “A2 VALUE” did it give?
The value was “A (compounds of the present invention having an A2 value of less than 100 nM are represented by A)”.

How did the “A2 VALUE” turn out when `CCCC(C)(C)C(=O)N1CC/C(=C\C(=O)Nc2ccc3cccnc3c2)c2ccc(C(F)(F)F)cc21` [Example 81, (E)-2-(1-(2,2-dimethylpentanoyl)-7-trifluoromethyl-2,3-dihydroquinolin-4(1H)-ylidene)-N-(quinolin-7-yl)acetamide] was run?
Its value is “A (compounds of the present invention having an A2 value of less than 100 nM are represented by A)”.

For `CC1(C)N/C(=C\C(=O)Nc2cccc3c2CC(O)CC3)c2ccc(C(F)(F)F)cc2O1` (stereo not drawn) [Example 240, (Z)-2-(6-trifluoromethyl-3,3-dimethyl-4-oxa-3,4-dihydro-(2H)-isoquinolin-1-ylidene)-N-(7-hydroxy-5,6,7,8-tetrahydronaphthalen-1-yl)acetamide], which “A2 VALUE” is on record?
Its value is “A (compounds of the present invention having an A2 value of less than 100 nM are represented by A)”.

For `COCCC(=O)N1CC/C(=C\C(=O)Nc2ccc3cccnc3c2)c2ccc(C(F)(F)F)cc21` [Example 100, (E)-2-(7-trifluoromethyl-2,3-dihydro-1-(3-methoxypropanoyl)quinolin-4(1H)-ylidene)-N-(quinolin-7-yl)acetamide], which “A2 VALUE” is on record?
Its value is “A (compounds of the present invention having an A2 value of less than 100 nM are represented by A)”.

Which “A2 VALUE” does the source give for `O=C(/C=C1\CCCN(C(=O)C2CCCC2)c2cc(C(F)(F)F)ccc21)Nc1ccc2cccnc2c1` [Example 193, (E)-2-(1-cyclopentanecarbonyl-8-trifluoromethyl-1,2,3,4-tetrahydro-5H-benzo[b]azepin-5-ylidene)-N-(quinolin-7-yl)acetamide] here?
Its value is “A (compounds of the present invention having an A2 value of less than 100 nM are represented by A)”.
